Data: the supplement of paper PMC11061612

Assays:
Assay in all cases: combination Emax (second highest fraction inhibited in the dose matrix, 72 h); higher = more inhibition; extreme values may be limits of the assay
[1] = tested on: HSC-4 (Oral Cavity Carcinoma)
In short: (§1)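 After 24 hours at 37°C and 5% CO2 in 1536-well plates, cells in DMEM/F12 or RPMI plus 10% FBS received two-drug dose matrices for 72 hours. Viability came from CellTiter-Glo 2.0 luminescence and was scaled as inhibition, anchored at 0 by vehicle wells and at 1 by blank wells. Combination Emax is taken as the second-highest inhibition in the matrix, and Bliss excess as the observed combination effect less EA + EB − EA·EB, with EA and EB the single-agent effects.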

TGW (Neuroblastoma) = tested on: TGW (Neuroblastoma)
In short: as §1

[2] = tested on: HGC-27 (Gastric Carcinoma)
In short: as §1

[3] = tested on: OE19 (Esophageal Adenocarcinoma)
In short: as §1

[4] = tested on: KYSE-450 (Esophageal Squamous Cell Carcinoma)
In short: as §1

[5] = tested on: NCI-H358 (Lung Adenocarcinoma)
In short: as §1

TK10 (Kidney Carcinoma) = tested on: TK10 (Kidney Carcinoma)
In short: as §1

[6] = tested on: NCI-H727 (Other Solid Carcinomas)
In short: as §1

[7] = tested on: OSC-20 (Oral Cavity Carcinoma)
In short: as §1

[8] = tested on: MLMA (Other Blood Carcinomas)
In short: as §1

[9] = tested on: AMO-1 (Plasma Cell Myeloma)
In short: as §1

[10] = tested on: SU8686 (Pancreatic Carcinoma)
In short: as §1

[11] = tested on: OVCAR-4 (Ovarian Carcinoma)
In short: as §1

[12] = tested on: NCI-H1915 (Non-Small Cell Lung Carcinoma)
In short: as §1

ACHN (Kidney Carcinoma) = tested on: ACHN (Kidney Carcinoma)
In short: as §1

[13] = tested on: LU-65 (Non-Small Cell Lung Carcinoma)
In short: as §1

[14] = tested on: Hs-766T (Pancreatic Carcinoma)
In short: as §1

[15] = tested on: NUGC-3 (Gastric Carcinoma)
In short: as §1

[16] = tested on: Caov-4 (Ovarian Carcinoma)
In short: as §1

[17] = tested on: TE-1 (Esophageal Squamous Cell Carcinoma)
In short: as §1

Row | SMILES | combination Emax [1] | combination Emax (TGW (Neuroblastoma)) | combination Emax [2] | combination Emax [3] | combination Emax [4] | combination Emax [5] | combination Emax (TK10 (Kidney Carcinoma)) | combination Emax [6] | combination Emax [7] | combination Emax [8] | combination Emax [9] | combination Emax [10] | combination Emax [11] | combination Emax [12] | combination Emax (ACHN (Kidney Carcinoma)) | combination Emax [13] | combination Emax [14] | combination Emax [15] | combination Emax [16] | combination Emax [17]
1 | CN(CCO)CC[C@H](CSc1ccccc1)Nc1ccc(S(=O)(=O)NC(=O)c2ccc(N3CCC([C@@H](O)c4ccccc4-c4ccc(Cl)cc4)CC3)cc2)cc1S(=O)(=O)C(F)(F)F [AZD4320] + CN(C)CCCOc1ccc(-c2ccc3ncc4c(c3c2)n(C2CCOCC2)c(=O)n4C)cn1 [AZD0156] (first compound max 1 µM, 7x7, partner max 1 µM) | 0.245 | 0.963 | 0.274 | 0.291 | 0.0751 | 0.217 | 0.375 | 0.214 | 0.106 | 0.374 | 0.0251 | 0.0423 | 0.184 | 0.271 | 0.125 | 0.307 | 0.21 | 0.151 | 0.276 | 0.37
2 | Cn1cnc2c(F)c(Nc3ccc(Br)cc3Cl)c(C(=O)NOCCO)cc21 [Selumetinib] + CCN(CCO)CCCOc1ccc2c(Nc3cc(CC(=O)Nc4cccc(F)c4)[nH]n3)ncnc2c1 [AZD2811] (first compound max 10 µM, 7x7, partner max 1 µM) | 0.345 | 0.0777 | 0.71 | 0.796 | 0.209 | 0.499 | 0.327 | 0.622 | 0.343 | 0.286 | 0.481 | 0.142 | 0.268 | 0.6 | 0.366 | 0.635 | 0.515 | 0.551 | 0.551 | 0.49
3 | COc1nnc2ccc(N3CCC(c4ccc(OCCN5CCN(C)C(=O)[C@H]5C)cc4)CC3)nn12 [AZD5153] + C=CCn1c(=O)c2cnc(Nc3ccc(N4CCN(C)CC4)cc3)nc2n1-c1cccc(C(C)(C)O)n1 [AZD1775] (first compound max 1 µM, partner max 1 µM) | 0.397 | 0.674 | 0.839 | 0.539 | 0.519 | 0.63 | 0.604 | 0.431 | 0.284 | 0.938 | 0.978 | 0.171 | 0.583 | 0.678 | 0.835 | 0.799 | 0.448 | 0.715 | 0.864 | 0.591
4 | COc1cccc(OCCCN)c1-c1cc(Nc2cnc(C#N)cn2)n[nH]1 [Prexasertib] + CCc1c2c(nc3ccc(O)cc13)-c1cc3c(c(=O)n1C2)COC(=O)[C@]3(O)CC [SN-38] (first compound max 1 µM, 7x7, partner max 0.3 µM) | 0.9 | 0.944 | 0.994 | 0.956 | 0.996 | 0.897 | 0.691 | 0.696 | 0.735 | 0.948 | 0.968 | 0.448 | 0.9 | 0.89 | 0.931 | 0.926 | 0.655 | 0.976 | 1 | 0.902
5 | CC(=O)c1c(C)c2cnc(Nc3ccc(N4CCNCC4)cn3)nc2n(C2CCCC2)c1=O [Palbociclib] + CC1(C)CCC(CN2CCN(c3ccc(C(=O)NS(=O)(=O)c4ccc(NCC5CCOCC5)c([N+](=O)[O-])c4)c(Oc4cnc5[nH]ccc5c4)c3)CC2)=C(c2ccc(Cl)cc2)C1 [Venetoclax] (first compound max 10 µM, 7x7, partner max 1 µM) | 0.121 | 0.226 | 0.628 | 0.257 | 0.126 | 0.337 | 0.3 | 0.232 | 0.0423 | 0.683 | 0.273 | 0.0346 | 0.0611 | 0.466 | 0.597 | 0.117 | 0.149 | 0.339 | 0.18 | 0.179
6 | CC1(C)CCC(CN2CCN(c3ccc(C(=O)NS(=O)(=O)c4ccc(NCC5CCOCC5)c([N+](=O)[O-])c4)c(Oc4cnc5[nH]ccc5c4)c3)CC2)=C(c2ccc(Cl)cc2)C1 [Venetoclax] + C=CCn1c(=O)c2cnc(Nc3ccc(N4CCN(C)CC4)cc3)nc2n1-c1cccc(C(C)(C)O)n1 [AZD1775] (first compound max 1 µM, partner max 1 µM) | 0.372 | 0.846 | 0.54 | 0.223 | 0.614 | 0.798 | 0.591 | 0.689 | 0.253 | 0.945 | 0.921 | 0.107 | 0.588 | 0.634 | 0.96 | 0.733 | 0.53 | 0.596 | 0.811 | 0.603
